Reference: patent US9314510B2, “Human laminin α2 chain LG3 domain and active peptides promoting cell adhesion, spreading, migration, and neurite outgrowth” (SNU R&DB Foundation, priority 2011, dated 2016)
Ends that are not written are not given here.

Tests used:
PC12 cells [1] = assay: Cell migration assay (transwell migration chambers); format: cell-based, rat; conditions: transwell filters coated with laminin 5 μg/mL, rLG proteins 25 μg/mL or peptides 62.5 μg/mL, 24 h
Protocol: Cell migration assays were performed using transwell migration chambers of 8 μm in pore size (Corning Inc., NY) as described in a paper published previously by the present inventors (Kim, J. M., Min, S. K., Kim, H., Kang, H. K., Jung, S. Y., Lee, S. H., Choi, Y., Roh, S., Jeong, D., and Min, B. M. (2007) Int. J. Mol. Med.).
The lower sides of transwell filters were coated with laminin (5 μg/mL) or rLG proteins (25 μg/mL) for 12 h at 4° C. The lower sides of transwell filters were blocked with 1% BSA in PBS for 1 h at 37° C. Cells were suspended at a density of 4×10^5 cells/mL in RPMI 1640 medium containing 0.5% FBS and 0.1% BSA. 100 μL of this suspension was seeded in the upper chamber of the transwell filter. Cells were allowed to migrate for 24 h at 37° C. and then fixed with 10% formalin for 15 min and stained with 0.5% crystal violet. Non-migrated cells in the upper chamber of transwell filters were removed with a cotton swab, viewed under a light microscope, and counted.
(§1) Specifically, to observe cell adhesion, spreading, migration, and neurite outgrowth promotion, the methods described in Experimental examples <2-1> to <2-3> were used and PC12 cells were cultured on plates coated with laminin (5 μg/mL), rLG3 (25 μg/mL), and rLG3-M1 (25 μg/mL) and observed. To observe cell adhesion, PC12 cells were incubated on the coated plates for 1 h and to observe cell spreading, PC12 cells were incubated on the coated plates for 3 h. To observe cell migration, PC12 cells were incubated on the coated plates for […].

PC12 cells [2] = assay: Inhibition of cell adhesion to laminin by rLG3 / rLG3-M1 pretreatment; format: cell-based, rat; conditions: PC12 cells pretreated with 250 μg/mL; laminin 5 μg/mL
Protocol: In addition, PC12 cells were pretreated with rLG3 (250 or 500 μg/mL) or vehicle (phosphate buffer, pH 3.0) for 30 min and then seeded on plates coated with laminin (5 μg/mL) for 30 min in serum-free medium and cell adhesion was observed.

PC12 cells [3] = assay: Cell spreading assay on coated plates (cell surface area); format: cell-based, rat; conditions: 3 h, laminin 5 μg/mL, rLG proteins 25 μg/mL, peptides 62.5 μg/mL
Protocol: To determine cell spreading assays, the cells cultured on plates coated with each rLG domain protein for 1 h or 3 h in Experimental example <2-1> were fixed with 10% formalin. Then, the fixed cells were stained with 0.05% crystal violet for 1 h and plates were gently washed with PBS three times. The surface area of cells was measured with Image-Pro plus software (Version 4.5; Media Cybernetics, Silver Spring, Md.).
(§2) The present inventors compared the cellular activities of Ln2-LG3-P2 peptide to scrambled peptide (SEQ ID NO:20, NWEIRCIPGNPF) of Ln2-LG3-P2 peptide and Ln2-LG3-P1 peptide to Ln2-LG3-P5 peptide at a concentration of 62.5 μg/mL where the cell adhesion activity was the maximum. […] PC12 cells were cultured on plates which were coated in the same way for 3 h in serum-free medium and the cell spreading was observed.
as §1
(§3) To measure cell adhesion, spreading, migration, and neurite outgrowth promotive activities of PC12 cells using the prepared synthetic peptides that are N- and C-terminal truncated or C-terminal added peptides of the Ln2-LG3-P2 peptide, peptides described in Table 1 were coated onto plates at 62.5 μg/mL and PC12 cells were seeded thereon.

PC12 cells [4] = assay: Neurite outgrowth assay; format: cell-based, rat; conditions: PC12 cells on coated plates, serum-free, 24 h + 72 h
Protocol: Laminin, rLG domain protein, and the peptide were coated onto plates and cells were seeded on the plates in serum-free medium and incubated for 24 h. After changing with serum-free medium again, cells were further cultured for 72 h and neurite outgrowth was examined.

PC12 cells [5] = assay: Cell adhesion assay on coated plates (crystal violet, absorbance 570 nm); format: cell-based, rat
Protocol: The cell adhesion assay was performed as described in a paper published previously by the present inventors (Kim, J. M., et al, Exp. Cell Res, 2005).
Specifically, 24-well culture plates (Nunc, Denmark) were coated with 5 μg/mL human placental laminin (Sigma-Aldrich, St. Louis, Mo.) or 25 μg/mL rLG domain proteins for 12 h at 4° C. The peptides were also coated on the plates by drying for 12 h at room temperature. The substrate-coated plates were blocked with 1% heat-inactivated bovine serum albumin (BSA) in PBS for 1 h at 37° C. and then washed with PBS.
The cells were trypsinized with trypsin/EDTA and resuspended in serum-free culture medium. The cells were added at a density of 2×10^5 cells/500 μL to each plate and incubated in serum-free culture medium for 1 h at 37° C. After incubation, unattached cells were removed by rinsing twice with PBS. The attached cells were fixed with 10% formalin for 15 min and then stained with 0.5% crystal violet for 1 h. Plates were gently washed with distilled water three times and dissolved with 2% SDS for 5 min. Absorbance was measured at 570 nm using a microplate reader (BioRad).
First, PC12 cells were cultured on plates coated with varying amounts of five kinds of Ln2-PG3 peptides and then cell adhesion was observed. The peptides were coated in concentrations ranging from 0 to 125 μg/mL on plates by drying them for 12 h at room temperature.
as §2, §1, §3

PC12 cells [6] = assay: Immunostaining of actin stress fibers and focal adhesions; format: cell-based, rat; conditions: PC12 cells on coated chamber slides, 3 h, serum-free
Protocol: Specifically, for immunostaining, PC12 cells were incubated on Lab-Tek chamber slides (Nalge Nunc International, Rochester, N.Y.) coated with laminin (5 μg/mL), rLG domain proteins (25 μg/mL), or Scrambled peptide (SP) (25 μg/well) in serum-free medium for 3 h at 37° C. Lab-Tek chamber slides were coated with BSA for the control. After rinsing with PBS, PC12 cells were fixed with 3.7% formalin for 20 min and permeabilized with 0.5% Triton X-100 for 5 min. PC12 cells were incubated with primary antibodies for 12 h at 4° C. The primary antibodies used were 1:500 anti-vinculin (Sigma-Aldrich 9131), or 1:300 rhodamin-phalloidin (Invitrogen R154) antibodies. After rinsing with PBS, PC12 cells were immunostained with FITC-conjugated anti-mouse IgG antibody (Jackson ImmunoResearch Laboratories, West Grove, Pa.) or rhodamin-conjugated anti-mouse IgG antibody (Santa Cruz Biotechnology) for 1 h at room temperature. After being washed three times with PBS, the stained PC12 cells were mounted and photographed using a confocal laser scanning microscope (FV300; Olympus, Japan).

PC12 cells [7] = assay: Summary of cell adhesion, spreading, migration and neurite outgrowth promotive effects; format: cell-based, rat; conditions: summary statement of the description
Protocol: as §3

PC12 cells [8] = assay: Effect of EDTA or MnCl2 pretreatment on cell adhesion and spreading; format: cell-based, rat; conditions: 5 mM EDTA or 1 mM MnCl2, 15 min; for cell adhesion to laminin after pretreatment / cell adhesion to rLG3 or Ln2-LG3-P2 after pretreatment: 1 h; for cell spreading to laminin after pretreatment / cell spreading to rLG3 or Ln2-LG3-P2 after pretreatment: 3 h
Protocol: PC12 cells were pretreated with either 5 mM EDTA or 1 mM MnCl2 for 15 min at 37° C. and seeded on plates coated with rLG3 or the Ln2-LG3-P2 peptide. To measure cell adhesion, PC12 cells were incubated on the coated plates for 1 h and absorbance was measured. To measure cell spreading, PC12 cells were incubated on the coated plates for 3 h and relative cell area was measured using Image-Pro Plus software.

PC12 cells [9] = conditions: at the indicated concentrations and duration of treatment
PC12 cells [10] = assay: Effect of calphostin C pretreatment on cell adhesion; format: cell-based, rat; conditions: PC12 cells, 0.05, 0.1, 0.5 μM, 15 min; 1 h
Protocol: PC12 cells were pretreated with 0.05 μM, 0.1 μM, and 0.5 μM of calphostin C for 15 min at 37° C. and then incubated on plates coated with rLG3 or the Ln2-LG3-P2 peptide for 1 h.

PC12 cells [11] = assay: Cell adhesion inhibition assay: peptide pretreatment, adhesion to rLG3-coated plates; format: cell-based, rat; conditions: PC12 cells pretreated with 500 μg/mL peptide; rLG3 25 μg/mL
Protocol: Specifically, PC12 cells were pretreated with the Ln2-LG3-P2 peptide in concentrations of 0, 0.2, 0.4, 0.6, 0.8, 1.0, or 1.2 μg/mL for 10 min at room temperature and then cultured on plates coated with rLG3 (25 μg/mL) for 1 h in serum-free medium.
PC12 cells were pretreated with 500 μg/mL of Ln2-LG3-P1, Ln2-LG3-P2, Ln2-LG3-P3, Ln2-LG3-P4, Ln2-LG3-P5 and SP (scramble peptide) (SEQ ID NO:20) for 10 min at room temperature and then cultured on plates coated with rLG3 (25 μg/mL) in serum-free medium. To observe cell adhesion, PC12 cells were incubated on the coated plates for 1 h and to observe cell spreading, PC12 cells were incubated on the coated plates for 3 h. To observe cell migration, cells were seed into the upper chamber of transwell filters coated with rLG3 (25 μg/mL) and cultured for 24 h. Cell migration was quantified by counting the number of cells that had migrated through the filter.
Specifically, PC12 cells were pretreated with Ln2-LG2-P2 (500 μg/mL) and Ln2-LG3-P2A (500 μg/mL) and then, cell adhesion was observed on plates coated with rLG3 (25 μg/mL).

rLG3-M1: mutant rLG3 protein, Arg in the Ln2-LG3-P2 site substituted with Ala (ANIPPFEGCIWN) (rLG3-M1)
cell migration (PC12 cells [1]): significantly reduced levels
inhibition of cell adhesion to laminin (in words) (PC12 cells [2]): did not inhibit
cell spreading (PC12 cells [3]): significantly reduced levels
neurite outgrowth (PC12 cells [4]): significantly reduced levels
cell adhesion (PC12 cells [5]; PC12 cells on coated plates, 1 h, serum-free, laminin 5 μg/mL, rLG proteins 25 μg/mL, peptides 62.5 μg/mL (0 to 125 μg/mL in FIG. 2B)): significantly reduced levels

NWEIRCIPGNPF (NWEIRCIPGNPF-NH2) [scrambled peptide, scrambled peptide of Ln2-LG3-P2 peptide, negative control, reference compound]
cell migration (PC12 cells [1]): entirely ineffective
cell spreading (PC12 cells [3]): entirely ineffective
actin stress fiber formation and focal adhesions (PC12 cells [6]): did not organize actin stress fibers
cell spreading (immunostaining) (PC12 cells [6]): no effect on spreading

PFEGCIWN (PFEGCIWN-NH2) [Ln2-LG3-P2-DN4, N-terminal truncated Ln2-LG3-P2]
cell migration (PC12 cells [1]): did not show cell migration activity

RNIPPFEGCIWNLVINSVPMDFAR (RNIPPFEGCIWNLVINSVPMDFAR-NH2) [Ln2-LG3-P2-AC1, C-terminal added Ln2-LG3-P2]
cell adhesion, spreading, migration, and neurite outgrowth promotive effects (PC12 cells [7]): significantly excellent

O=C(O)CN(CCN(CC(=O)O)CC(=O)O)CC(=O)O [EDTA]
cell adhesion to laminin after pretreatment (PC12 cells [8]): completely inhibited
cell adhesion to rLG3 or Ln2-LG3-P2 after pretreatment (PC12 cells [8]): partially inhibited
cell spreading to laminin after pretreatment (PC12 cells [8]): completely inhibited
cell spreading to rLG3 or Ln2-LG3-P2 after pretreatment (PC12 cells [8]): partially inhibited

calphostin C
cell growth (PC12 cells [9]): did not affect cell growth
cell adhesion activities to laminin, rLG3, and Ln2-LG3-P2 after inhibitor pretreatment (PC12 cells [10]): significantly inhibited in a dose-dependent manner

PPFEGCIWN (PPFEGCIWN-NH2) [Ln2-LG3-P2-DN3, N-terminal truncated Ln2-LG3-P2]
cell adhesion, spreading, migration, and neurite outgrowth promotive effects (PC12 cells [7]): significantly excellent

RNIPPFEGCIWNLVINSVPMDFARPVSFKNADIGRC (RNIPPFEGCIWNLVINSVPMDFARPVSFKNADIGRC-NH2; cysteine pairing not given here) [Ln2-LG3-P2-AC2, C-terminal added Ln2-LG3-P2]
cell adhesion, spreading, migration, and neurite outgrowth promotive effects (PC12 cells [7]): significantly excellent

[Cl][Mn][Cl] [Mn^2+, MnCl2]
cell adhesion to laminin after pretreatment (PC12 cells [8]): significantly enhanced
cell adhesion to rLG3 or Ln2-LG3-P2 after pretreatment (PC12 cells [8]): significantly enhanced
cell spreading to laminin after pretreatment (PC12 cells [8]): significantly enhanced
cell spreading to rLG3 or Ln2-LG3-P2 after pretreatment (PC12 cells [8]): significantly enhanced

Ln2-LG3-P2A: Ln2-LG3-P2 peptide synthesized by substituting Arg with Ala (ANIPPFEGCIWN-NH2)
inhibition of cell adhesion to rLG3 (in words) (PC12 cells [11]): did not inhibit
cell adhesion compared to the control group Ln2-LG3-P2 (PC12 cells [5]; PC12 cells on plates coated with peptide (500 μg/mL, FIG. 3H)): significantly inhibited
